Results: PMC9942839, “Structural remodeling of AAA+ ATPase p97 by adaptor protein ASPL facilitates posttranslational methylation by METTL21D” (Proceedings of the National Academy of Sciences of the …, 2023)
Changes are numbered by the printed parent chain.

Key:
[1] = molecular target: T1, METTL21D in p97-ND1:ASPL-CΔ:METTL21D (Homo sapiens, UniProt Q9H867); assay: X-ray crystal structure, […] Å; assay type: binding; conditions: METTL21D active site; crystallized with SAM, product of p97 Lys315 trimethylation; contacts Asp96, Trp126
T1 construct: gene VCPKMT; 1:1:1 heterotrimer ~110 kDa; METTL21D His tag cleaved by TEV; p97-ND1 fragment lacking D2 domain, Lys315 trimethylated; ASPL-CΔ residues 313-500; E. coli; with Transitional endoplasmic reticulum ATPase; Tether containing UBX domain for GLUT4
T1 sequence (Q9H867 2-229 limits assumed, stated change not applied): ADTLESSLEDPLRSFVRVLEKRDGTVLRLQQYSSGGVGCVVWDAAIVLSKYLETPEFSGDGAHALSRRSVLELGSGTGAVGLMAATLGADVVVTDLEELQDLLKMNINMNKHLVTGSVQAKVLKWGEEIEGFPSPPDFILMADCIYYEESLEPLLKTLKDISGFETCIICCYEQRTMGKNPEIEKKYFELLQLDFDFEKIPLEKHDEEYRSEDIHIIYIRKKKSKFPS
T1 sequence (P55072 2-480 partner limits assumed): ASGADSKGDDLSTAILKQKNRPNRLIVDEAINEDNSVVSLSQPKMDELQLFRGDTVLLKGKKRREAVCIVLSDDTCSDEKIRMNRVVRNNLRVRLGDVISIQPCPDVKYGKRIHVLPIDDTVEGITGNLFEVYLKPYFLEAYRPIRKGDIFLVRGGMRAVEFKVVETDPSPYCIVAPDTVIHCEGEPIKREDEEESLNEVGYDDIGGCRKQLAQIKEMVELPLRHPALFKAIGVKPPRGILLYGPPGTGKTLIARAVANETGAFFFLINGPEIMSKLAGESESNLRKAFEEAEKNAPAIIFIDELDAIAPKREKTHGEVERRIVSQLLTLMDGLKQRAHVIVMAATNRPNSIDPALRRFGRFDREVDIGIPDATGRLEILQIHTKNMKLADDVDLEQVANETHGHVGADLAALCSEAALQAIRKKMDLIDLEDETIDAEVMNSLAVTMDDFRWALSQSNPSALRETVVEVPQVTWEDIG
T1 sequence (Q9BZE9 313-500 partner): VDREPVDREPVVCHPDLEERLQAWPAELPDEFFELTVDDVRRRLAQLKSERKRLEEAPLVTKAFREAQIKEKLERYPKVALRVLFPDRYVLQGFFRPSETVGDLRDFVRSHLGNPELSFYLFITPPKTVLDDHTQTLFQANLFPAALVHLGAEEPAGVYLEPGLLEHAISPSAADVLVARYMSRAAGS

[2] = molecular target: T2, AtMETTL21D (Arabidopsis thaliana, UniProt F4HUD6); assay: methylation assay, anti-monomethyl-lysine western blot; assay type: biochemical; conditions: automethylation and monomethylation of AtCDC48 in the presence of PUX1; pH 8.0, RT
T2 construct: gene At1g08125; E. coli; His tag cleaved by TEV
T2 sequence (F4HUD6 15-239): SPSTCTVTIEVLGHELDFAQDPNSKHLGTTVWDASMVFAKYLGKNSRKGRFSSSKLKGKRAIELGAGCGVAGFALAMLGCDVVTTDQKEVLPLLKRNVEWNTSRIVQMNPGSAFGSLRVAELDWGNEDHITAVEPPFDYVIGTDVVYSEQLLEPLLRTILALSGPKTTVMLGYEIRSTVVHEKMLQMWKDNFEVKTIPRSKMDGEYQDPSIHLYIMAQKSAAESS

[3] = molecular target: T3, AtMETTL21D (Arabidopsis thaliana, UniProt F4HUD6, C19S/L26V, form not given); assay: methylation assay, anti-Kme3 western blot; assay type: biochemical; conditions: co-substrate AtCDC48; weak gain of trimethylation; 20 mM HEPES pH 8.0, 200 mM NaCl, RT
T3 construct: gene At1g08125; E. coli; His tag cleaved by TEV
T3 sequence (F4HUD6 15-239 C19S/L26V): T2 sequence (F4HUD6 15-239) with C5S, L12V

Row | Structure (SMILES) | X-ray crystal structure, 3.0 Å [1] | methylation assay, anti-monomethyl-lysine western blot [2] | methylation assay, anti-Kme3 western blot [3]
1 | Nc1ncnc2c1ncn2[C@@H]1O[C@H](CSCC[C@H](N)C(=O)O)[C@@H](O)[C@H]1O [S-adenosyl-L-homocysteine] | the active site of METTL21D contains a S-adenosyl-L-homocysteine (SAH) molecule |  | 
2 | C[S+](CC[C@H](N)C(=O)O)C[C@H]1O[C@@H](n2cnc3c(N)ncnc32)[C@H](O)[C@@H]1O (stereo partly drawn) [S-adenosyl-methionine] |  | AtMETTL21D monomethylated itself, as well as AtCDC48 in the presence of PUX1 | substitution of leucine with valine in plant AtMETTL21D resulted in gain of trimethylation activity
